# From PMC5614969, “High-Affinity Functional Fluorescent Ligands for Human β-Adrenoceptors” (Scientific Reports, 2017)
# Where “and” joins values, the source holds several entries; their conditions need not be identical. Equal entries are not always repeated. Entries after “also recorded” stand apart in the source; their conditions may differ.
# Columns and labels:
# β2AR [1] = biological target: T1, β2AR (Homo sapiens, UniProt P07550); assay: cAMP FRET sensor assay, competitive displacement of isoprenaline by antagonists in HEK293 cells; type: cell-based
# T1 sequence (P07550 whole entry): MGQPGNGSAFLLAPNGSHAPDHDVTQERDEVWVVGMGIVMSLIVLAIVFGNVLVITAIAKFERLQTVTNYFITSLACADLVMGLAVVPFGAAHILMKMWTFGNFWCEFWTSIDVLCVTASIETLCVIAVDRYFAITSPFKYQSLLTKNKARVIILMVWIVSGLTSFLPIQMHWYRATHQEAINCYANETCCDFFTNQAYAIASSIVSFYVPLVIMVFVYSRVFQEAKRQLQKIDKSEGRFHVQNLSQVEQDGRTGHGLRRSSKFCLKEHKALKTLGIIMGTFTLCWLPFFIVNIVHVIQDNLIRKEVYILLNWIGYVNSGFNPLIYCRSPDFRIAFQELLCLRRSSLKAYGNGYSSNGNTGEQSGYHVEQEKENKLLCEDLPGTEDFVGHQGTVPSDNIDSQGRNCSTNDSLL
# Experimental: (§1) The culture was maintained by subculturing the cells every 4 to 5 days using the standard trypsinization procedure. Before measurements, cells were trypsinated and transferred in a 96-well glass bottom plate (MatTek Corporation; Cat. No. P96GC-1.5–5-F) to contain 10,000–30,000 cells per well in 200 µL of DMEM media. After 24 h incubation in 5% CO2 at 37 °C, the cells were washed with HBSS pH 7.2 (200 µL), and the wells were filled with 200 µL HBSS. The DMSO stock solutions of the fluorescent probes were diluted 5,000 times in HBSS and used in experiments. In the antagonist inhibition experiment, we used β1 and β2 adrenoceptor agonist isoprenaline (abcr GmbH) as a positive control causing cAMP elevation. […] The fluorescent ligand solutions of different concentrations in HBSS were premixed with the isoprenaline solution. 50 µL of a final solution was added to each well and the measurement was started upon addition and continued for 1 h in 10 min intervals between the readouts (inclusive).
# (§2) The ligands were added using an automated pipette to initiate the sensor response. FRET readout from the cAMP sensor was performed on a multiwell plate reader Spark 20 M (Tecan) at room temperature (25 °C). Fluorescence readout amplitudes were calculated from time series for different ligand concentrations, following background subtraction (media only). […] Data were derived from 3 independent experiments and each independent experiment was performed in triplicate.
# (§3) Sensor response R(CFP/FRET) was calculated using (1):1 R(CFP/FRET)=(FimTurquoise−FbkgmTurquoise)/(FiFRET−FbkgFRET) where F i ^mTurquoise – mTurquoise fluorescence intensity in the wells with cells; F bkg ^mTurquoise - mTurquoise fluorescence intensity in the control wells without cells; F i ^FRET – FRET signal intensity in the wells with cells; F bkg ^FRET – FRET signal intensity in the control wells without cells. For every result, R(CFP/FRET) ratio was normalized to the R(CFP/FRET) response of DMSO sample.
# K i ^app were calculated using the Cheng-Prusoff equation (2):2 Kiapp=IC50/[A]/EC50+1 where [A] – concentration of the isoprenaline; IC50 – fitted half maximal inhibitory concentration of labeled antagonist; EC50 – fitted half maximal response concentration of isoprenaline.
# β2AR-YFP fusion protein [2] = biological target: T2, β2AR-YFP fusion protein (Homo sapiens, UniProt P07550); assay: Confocal imaging of living U2OS cells expressing β2AR-YFP (staining, internalization, competitive displacement, no-wash); type: cell-based; details: 90 min, 100 nM carazolol-KK114 (24), 5 nM ab118171, no washing
# T2 construct: host or cells: U2OS
# T2 sequence (P07550 whole entry, the tested form may be a part): as the sequence (P07550 whole entry) above
# β2AR-YFP fusion protein [3] = biological target: T2, β2AR-YFP fusion protein; assay: as above; type: cell-based; details: for Receptor internalization / Staining performance: U2OS cells expressing β2AR-YFP; for Staining performance: 610CP ligands at 1.9 µM (19) and 2.5 µM (16)
# Experimental: U2OS cells (ATCC) were cultured in high-glucose DMEM (Dulbecco’s Modified Eagle medium, Thermo Fisher Scientific) supplemented with GlutaMAX-1 (Thermo Fisher Scientific) and 10% fetal bovine serum (FBS) (Thermo Fisher Scientific) in a humidified 5% CO2 incubator at 37 °C. CAPAN-1 cells (ATCC) were cultured in McCoy’s 5a Medium Modified supplemented with 10% fetal bovine serum (FBS) (Thermo Fisher Scientific) in a humidified 5% CO2 atmosphere at 37 °C. Cells were split every 3–5 days or at confluence. Cells were seeded in glass bottom 12-well plates (MatTek Corporation). […] We used 200,000 cells per well, 3 µg plasmid DNA and 3 µl of Lipofectamine 2000.
# We performed imaging 48–72 h after transfection. Staining of the transfected cell was performed in Hanks’ balanced salt solution (HBSS, Lonza) without Phenol Red for 30–40 min at room temperature (to minimize internalization). Samples were washed two times with HBSS, and cells were imaged in DMEM (Thermo Fisher Scientific) supplemented with GlutaMAX-1 (Thermo Fisher Scientific) and 10% fetal bovine serum (FBS). For all staining experiments with cells, stock solutions of dyes in DMSO were used, and final DMSO content was < 0.5%. Imaging was performed on Leica SP8 (Leica Microsystems) or Abberior STED (Abberior Instruments GmbH) microscopes.
# Competitive displacement experiment was performed in living U2OS cells expressing β2AR-YFP fusion protein.
# Confocal imaging was performed on a Leica SP8 (Leica Microsystems, Mannheim, Germany) inverted confocal microscope equipped with an HC PL APO CS2 63x/1.40 Oil objective. Images were acquired using a 700 Hz bidirectional scanner, pixel size of 70 nm × 70 nm, pinhole of 95.6 µm diameter(1 AU) and frame averaging of 2.
# β2AR [4] = biological target: T1, β2AR; assay: Staining and competitive binding in CAPAN-1 cells at endogenous β2AR expression; type: cell-based; details: 100 nM probe (5 nM ab118171) with 10 µM BI-167107 or carazolol
# Experimental: To study the selectivity of β2AR staining at the endogenous expression levels, which are much lower compared to those in transiently β2AR expressing U2OS cells, we tested the performance of BI-167107 probes in pancreatic CAPAN-1 cells (Fig. 7c–f). […] Low density of β2AR in the plasma membrane of CAPAN-1 cells allowed us to measure of the lateral resolution in the STED images. When the cells were incubated with 100 nM BI-PEG-KK114 (18) ligand, we observed two-fold improvement in the resolution resulting in apparent structures of ~100 nm (Fig. 7d; Supplementary Table 4).
# For staining of CAPAN-1 cells, fluorescent probes or mixtures of a probe and a competitor were incubated in McCoy’s 5a Medium Modified supplemented with 10% fetal bovine serum (FBS) for 30–40 min at room temperature. Afterwards, the samples were washed two times with HBSS, and cells were imaged in DMEM (Thermo Fisher Scientific) supplemented with GlutaMAX-1 (Thermo Fisher Scientific) and 10% fetal bovine serum (FBS). Imaging performed on Leica SP8 (Leica Microsystems) or Abberior STED (Abberior Instruments GmbH) microscopes.
# [5] = pH dependence of ligand fluorescence; type: physicochemical
# Experimental: pH dependence of βAR ligands fluorescence were recorded on a multiwell plate reader Spark 20 M (Tecan) in 96-well glass bottom plates (MatTek Corporation; Cat. No. PBK96G-1.5-5-F) in PBS solutions (pH 4.7–8.0) at room temperature (25 °C). The 100x stock solutions of ligands were prepared in DMSO.
# [6] = Fluorescence increase upon addition of SDS to probe solutions; type: physicochemical; details: addition of 0.1% SDS to ligand in PBS pH 7.4 with 1 mg/ml BSA; mean ± SD, n=3
# Experimental: Fluorescence spectra of 1 µM solution of fluorescent dyes and ligands in PBS pH 7.4, PBS pH 7.4 + 1 mg/ml BSA (Sigma) and with or without 0.1% SDS (Acros Organics) were recorded on a multiwell plate reader Spark 20 M (Tecan) in half-area black 96-well plates (Greiner Bio-One, cat. 675076) at room temperature (25 °C) after 2 h incubation. Fluorescence emission was recorded from 600 nm to 800 nm with excitation at 580 nm. The emission bandwidth for all measurements was set to 5 nm. The spectra were averaged from 3 individual experiments. Ratios F(BSA+SDS)/F(BSA) of fluorescence signals at 635 nm for 610CP, 645 nm for BODIPY 630/650-X and 655 nm for KK114 conjugates were calculated. The obtained results are summarized (Table 1 and Supplementary Fig. 7).
# β2AR [7] = biological target: T1, β2AR; assay: cAMP FRET sensor (TEpacVV) agonist assay in HEK 293 cells; type: cell-based; details: HEK 293 expressing 3′,5′-cAMP FRET sensor, 30 min incubation, room temperature; for EC50: read-out: EC50 (mean ± SD)
# Experimental: Upon cAMP binding, the sensor undergoes a conformational change resulting in a decrease of the FRET efficiency between two fluorescent proteins: mTurquoise - a version of cyan fluorescent protein (CFP) as the donor, and yellow fluorescent protein (YFP) as the acceptor (Fig. 3a).
# The intracellular cyclic adenosine monophosphate (cAMP) levels were determined with HEK 293 cells expressing a 3′,5′-cAMP FRET sensor. The cells were a generous gift from Ruud Hovius from École poly-technique fédérale de Lausanne (EPFL). The cAMP production induces a conformational switch in ^TEpac^VV and causes a decrease in FRET efficiency, i.e. a decreased energy transfer between the two fluorescent proteins (donor mTurquoise and acceptor YFP)[32].
# as §1, with “experiments.” for “experiments. In the antagonist inhibition experiment, we used β1 and β2 adrenoceptor agonist isoprenaline (abcr GmbH) as a positive control causing cAMP elevation.”
# as §2, §3
# β1- and β2-adrenoceptors = test system: β1- and β2-adrenoceptors; design: method as in PMID 19875286; details: racemic BI-167107; cited from earlier work
# [8] = U2OS β2AR-YFP, 40 min, room temperature, washed
"IC50 (β2AR [1]; displacement of 17 nM isoprenaline, readout immediately after addition of ligands (0 min), read-out: IC50 (mean ± SD)) [nM]",Ki (β2AR [1]; read-out: Ki app (mean ± SD)) [nM],no-wash imaging staining (β2AR-YFP fusion protein [2]),Receptor internalization (β2AR-YFP fusion protein [3]),Staining performance (β2AR-YFP fusion protein [3]),"confocal staining at 5 nM (β2AR-YFP fusion protein [3]; U2OS β2AR-YFP, 5 nM, 40 min, room temperature, washed)",confocal staining at 100 nM (β2AR-YFP fusion protein [3]; [8]),confocal staining at 250 nM (β2AR-YFP fusion protein [3]; [8]),fluorescence reduction ([5]; pH 7.0 compared to pH 4.7),Fluorescence increase (F BSA+SDS / F BSA) [6],"Competitive displacement (β2AR-YFP fusion protein [3]; U2OS β2AR-YFP, 100 nM probe (5 nM ab118171) with 10 µM unlabeled BI-167107 or carazolol, 30 min)",EC50 (β2AR [7]),fluorescence decrease ([5]; at pH 4.7 and 8.0 versus pH 6.0–7.0),"EC50 (mean ± SD, nM) (β2AR [7])",Compound,competitive binding with excess unlabeled ligand (β2AR [4]),agonist classification at β-adrenoceptors (β1- and β2-adrenoceptors)
74.7 ± 36.3,4.8 ± 3.6,strong off-target staining,Weak,Strong,specific membrane localized fluorescence,non-specific dotted background,non-specific dotted background,almost two-fold,8.2±3.9,,,,,"CC(C)(CCNC(=O)CCOCCOCCNC(=O)COc1ccc(/C=C/C2=[N+]3C(=Cc4ccc(-c5cccs5)n4[B-]3(F)F)C=C2)cc1)NC[C@H](O)COc1cccc2[nH]c3ccccc3c12 [ab118171, reference compound]",not possible to achieve full displacement,
,,,Yes,Strong,,labelled the cells efficiently,unspecific fluorescence,,10.5±1.7,Low background fluorescence,0.2 nM and 0.18 nM,about 40%,,Cc1c(CCC(=O)NCCOCCOCCNC(=O)CCCCCNC(=O)COc2ccc(/C=C/C3=[N+]4C(=Cc5ccc(-c6cccs6)n5[B-]4(F)F)C=C3)cc2)cccc1CC(C)(C)NCC(O)c1ccc(O)c2c1OCC(=O)N2 (stereo not drawn) [BI-PEG-BDY630 (17)],strong off-target staining,
,,,,None,,,,,1.2±0.3,,0.6 nM and 0.62 nM,,low nanomolar,Cc1c(CCC(=O)NCCOCCOCCNC(=O)c2ccc(C(=O)[O-])c(C3=C4C=CC(=[N+](C)C)C=C4C(C)(C)c4cc(N(C)C)ccc43)c2)cccc1CC(C)(C)NCC(O)c1ccc(O)c2c1OCC(=O)N2 (stereo not drawn) [BI-PEG-610CP (19)],,
,,,,,,,,,,,,,,Cc1ccccc1CC(C)(C)NCC(O)c1ccc(O)c2c1OCC(=O)N2 (stereo not drawn) [BI-167107],,full agonist

Compound,"IC50 (β2AR [1]; displacement of 17 nM isoprenaline, readout immediately after addition of ligands (0 min), read-out: IC50 (mean ± SD)) [nM]",Ki (β2AR [1]; read-out: Ki app (mean ± SD)) [nM],no-wash imaging staining (β2AR-YFP fusion protein [2]),Receptor internalization (β2AR-YFP fusion protein [3]),Staining performance (β2AR-YFP fusion protein [3]),"confocal staining at 5 nM (β2AR-YFP fusion protein [3]; U2OS β2AR-YFP, 5 nM, 40 min, room temperature, washed)",confocal staining at 100 nM (β2AR-YFP fusion protein [3]; [8]),confocal staining at 250 nM (β2AR-YFP fusion protein [3]; [8]),fluorescence reduction ([5]; pH 7.0 compared to pH 4.7),Fluorescence increase (F BSA+SDS / F BSA) [6],"Competitive displacement (β2AR-YFP fusion protein [3]; U2OS β2AR-YFP, 100 nM probe (5 nM ab118171) with 10 µM unlabeled BI-167107 or carazolol, 30 min)",EC50 (β2AR [7]),fluorescence decrease ([5]; at pH 4.7 and 8.0 versus pH 6.0–7.0),"EC50 (mean ± SD, nM) (β2AR [7])",competitive binding with excess unlabeled ligand (β2AR [4]),agonist classification at β-adrenoceptors (β1- and β2-adrenoceptors)
Cc1c(CCC(=O)NCCCCNC(=O)c2ccc(C(=O)[O-])c(C3=C4C=CC(=[N+](C)C)C=C4C(C)(C)c4cc(N(C)C)ccc43)c2)cccc1CC(C)(C)NCC(O)c1ccc(O)c2c1OCC(=O)N2 (stereo not drawn) [BI-4C-610CP (16)],,,,Yes,satisfactory images; also recorded: Medium,,,,,1.5±0.4,,7.3 ± 1.4 nM,,low nanomolar,,
